Assay results from article PMC6151865, “Targeting protein biotinylation enhances tuberculosis chemotherapy” (Science Translational Medicine, 2018).
Entries after “also recorded” stand apart in the source; their conditions may differ.

How the values were obtained:
[1] = tested on: Mtb carrying an Rv3406 overexpression plasmid (pGMEH-Ptb38-rv3406); assay type: cell-based, Mycobacterium tuberculosis
[2] = tested on: Mtb mutant bioA TetON-1 strain; assay type: cell-based, Mycobacterium tuberculosis

Row | Compound | resistance relative to wild-type Mtb [1] [fold] | sensitivity of bioA TetON-1 compared to wild-type Mtb [2]
1 | Nc1ncnc2c1ncn2[C@@H]1O[C@H](CNS(=O)(=O)NC(=O)CCCC[C@@H]2SC[C@@H]3NC(=O)N[C@@H]32)[C@@H](O)[C@H]1O [Bio-AMS, 5′-[N-(d-biotinoyl)sulfamoyl]amino-5′-deoxyadenosine] | 64 | 
2 | CO[C@H]1/C=C/O[C@@]2(C)Oc3c(C)c(O)c4c(O)c(c(/C=N/N5CCN(C)CC5)c(O)c4c3C2=O)NC(=O)/C(C)=C\C=C\[C@H](C)[C@H](O)[C@@H](C)[C@@H](O)[C@@H](C)[C@H](OC(C)=O)[C@@H]1C [rifampicin] |  | more sensitive than wild-type Mtb; also recorded: more resistant than wild-type Mtb
